From patent US20240368150A1 (Hoffmann-La Roche Inc., priority 2021, published 2024)
Like-named read-outs stand apart in the source and are kept apart here.

Assays:
primary human T-cells [1] = experiment: Proliferation assay after 5 days (CellTiter-Glo, CD3 stimulation; PBS counter screen); format: cell-based; details: CD3 stimulation; for Emax: read-out: Emax proliferation (% activation); for EC50: primary human T-cells, CellTiter-Glo after 5 days, EC50 of fitted sigmoidal curve, read-out: Tcell Proliferation CD3 EC50
Procedure, shortened: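 Proliferation is measured 5 days post-treatment as ATP-dependent luminescence. Flags mark compounds that activated unstimulated cells or harmed viability.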

primary human T-cells [2] = test system: primary human T-cells
[3] = Homo sapiens, T-cell, 120 h, 5 days, normalized to reference compound A1 as stimulator control = 100%, DMSO neutral control

CC(C)(C)n1ccc(-c2cc3c(cc2F)S(=O)(=O)C[C@H](N)C(=O)N3Cc2ccc(Cl)cc2)n1 [Example 287, (3R)-3-amino-7-(1-tert-butylpyrazol-3-yl)-5-[(4-chlorophenyl)methyl]-8-fluoro-1,1-dioxo-2,3-dihydro-1λ^6,5-benzothiazepin-4-one]
Emax (primary human T-cells [1]; [3]): 66% | EC50 (primary human T-cells [1]; Homo sapiens, T-cell, 120 h): 2210 nM | EC50 (primary human T-cells [2]): 19300 nM

N[C@H]1CS(=O)(=O)c2ccc(-c3nnc(N4CC5(C4)CC(F)(F)C5)o3)cc2N(Cc2ccc(Cl)cc2)C1=O [Example 402, (3R)-3-amino-5-[(4-chlorophenyl)methyl]-7-[5-(6,6-difluoro-2-azaspiro[3.3]heptan-2-yl)-1,3,4-oxadiazol-2-yl]-1,1-dioxo-2,3-dihydro-1λ^6,5-benzothiazepin-4-one]
Emax (primary human T-cells [1]; [3]): 93% | EC50 (primary human T-cells [1]; Homo sapiens, T-cell, 120 h): 928 nM | EC50 (primary human T-cells [2]): 1640 nM

COC(=O)N1CC2CC(c3nnc(-c4ccc5c(c4)N(Cc4ccc(OC(F)(F)F)cc4)C(=O)[C@@H](N)CS5(=O)=O)o3)(C2)C1 [Example 422, Methyl 1-[5-[(3R)-3-amino-1,1,4-trioxo-5-[[4-(trifluoromethoxy)phenyl]methyl]-2,3-dihydro-1λ^6,5-benzothiazepin-7-yl]-1,3,4-oxadiazol-2-yl]-3-azabicyclo[3.1.1]heptane-3-carboxylate]
Emax (primary human T-cells [1]; [3]): 102% | EC50 (primary human T-cells [1]; Homo sapiens, T-cell, 120 h): 1830 nM | EC50 (primary human T-cells [2]): 835 nM

N[C@H]1CS(=O)(=O)c2cc(F)c(-c3nnc(C4CCCCC4(F)F)o3)cc2N(Cc2ccc(OC(F)(F)F)cc2)C1=O (stereo partly drawn) [Example 53, (3R)-3-amino-7-[5-(2,2-difluorocyclohexyl)-1,3,4-oxadiazol-2-yl]-8-fluoro-1,1-dioxo-5-[[4-(trifluoromethoxy)phenyl]methyl]-2,3-dihydro-1λ^6,5-benzothiazepin-4-one]
Emax (primary human T-cells [1]; [3]): 243% | EC50 (primary human T-cells [1]; Homo sapiens, T-cell, 120 h): < 162 nM | EC50 (primary human T-cells [2]): < 162 nM

CN(C)C(=O)c1nc(-c2cc3c(cc2F)S(=O)(=O)C[C@H](N)C(=O)N3Cc2ccc(OC(F)(F)C(F)F)cc2)no1 [Example 352, 3-[(3R)-3-amino-8-fluoro-1,1,4-trioxo-5-[[4-(1,1,2,2-tetrafluoroethoxy)phenyl]methyl]-2,3-dihydro-1λ^6,5-benzothiazepin-7-yl]-N,N-dimethyl-1,2,4-oxadiazole-5-carboxamide]
Emax (primary human T-cells [1]; [3]): 100% | EC50 (primary human T-cells [1]; Homo sapiens, T-cell, 120 h): 768 nM | EC50 (primary human T-cells [2]): 5740 nM

CC(Nc1nnc(-c2cc3c(cc2F)S(=O)(=O)C[C@H](N)C(=O)N3Cc2ccc(Cl)cc2)o1)C1CC1(F)F (single isomer, unassigned) [Example 496]
Emax proliferation (% activation) (primary human T-cells [1]; 5 days, normalized to reference compound A1 as stimulator control = 100%, DMSO neutral control): 91 % activation | EC50 (primary human T-cells [1]): 1150 nM | EC50 (primary human T-cells [2]): > 10000 nM

N[C@H]1CS(=O)(=O)c2cc(F)c(-c3noc(C(F)C(F)(F)F)n3)cc2N(Cc2ccc(Cl)cc2)C1=O (stereo partly drawn) [Example 296, (3R)-3-amino-5-[(4-chlorophenyl)methyl]-8-fluoro-1,1-dioxo-7-[5-(1,2,2,2-tetrafluoroethyl)-1,2,4-oxadiazol-3-yl]-2,3-dihydro-1λ^6,5-benzothiazepin-4-one]
Emax (primary human T-cells [1]; [3]): 66% | EC50 (primary human T-cells [1]; Homo sapiens, T-cell, 120 h): 687 nM | EC50 (primary human T-cells [2]): 710 nM

CN1CCCC(n2nnc(-c3cc4c(cc3F)S(=O)(=O)C[C@H](N)C(=O)N4Cc3ccc(Cl)cc3)n2)C1 (stereo partly drawn) [Example 20, (3R)-3-amino-5-[(4-chlorophenyl)methyl]-8-fluoro-7-[2-(1-methyl-3-piperidyl)tetrazol-5-yl]-1,1-dioxo-2,3-dihydro-1λ^6,5-benzothiazepin-4-one]
Emax (primary human T-cells [1]; [3]): 111% | EC50 (primary human T-cells [1]; Homo sapiens, T-cell, 120 h): 567 nM | EC50 (primary human T-cells [2]): 846 nM

COC(=O)N1CCC(c2nnc(-c3cc4c(cc3F)S(=O)(=O)C[C@H](N)C(=O)N4Cc3ccc(Cl)cc3)o2)C1 (stereo partly drawn) [Example 166, methyl 3-[5-[(3R)-3-amino-5-[(4-chlorophenyl)methyl]-8-fluoro-1,1,4-trioxo-2,3-dihydro-1λ^6,5-benzothiazepin-7-yl]-1,3,4-oxadiazol-2-yl]pyrrolidine-1-carboxylate]
Emax (primary human T-cells [1]; [3]): 104% | EC50 (primary human T-cells [1]; Homo sapiens, T-cell, 120 h): 904 nM | EC50 (primary human T-cells [2]): 567 nM

Cc1cc(C)c(-c2nnc(-c3cc4c(cc3F)S(=O)(=O)C[C@H](N)C(=O)N4Cc3ccc(Cl)cc3)o2)cn1 [Example 130, (3R)-3-amino-5-[(4-chlorophenyl)methyl]-7-[5-(4,6-dimethyl-3-pyridyl)-1,3,4-oxadiazol-2-yl]-8-fluoro-1,1-dioxo-2,3-dihydro-1λ^6,5-benzothiazepin-4-one]
Emax (primary human T-cells [1]; [3]): 114% | EC50 (primary human T-cells [1]; Homo sapiens, T-cell, 120 h): 159 nM | EC50 (primary human T-cells [2]): 284 nM

N[C@H]1CS(=O)(=O)c2cc(F)c(-c3nnc(N4CCC(F)(F)C(CO)C4)o3)cc2N(Cc2ccc(Cl)cc2)C1=O (stereo partly drawn) [Example 485, (3R)-3-amino-5-[(4-chlorophenyl)methyl]-7-[5-[4,4-difluoro-3-(hydroxymethyl)-1-piperidyl]-1,3,4-oxadiazol-2-yl]-8-fluoro-1,1-dioxo-2,3-dihydro-1λ^6,5-benzothiazepin-4-one]
Emax (primary human T-cells [1]; [3]): 98% | EC50 (primary human T-cells [1]; Homo sapiens, T-cell, 120 h): 868 nM | EC50 (primary human T-cells [2]): 8130 nM

COC(=O)N1CC(c2nnc(-c3cc4c(cc3F)S(=O)(=O)C[C@H](N)C(=O)N4Cc3ccc(Cl)cc3)o2)CC(F)(F)C1 (stereo partly drawn) [Example 163, methyl 3,3-difluoro-5-[5-[(3R)-3-amino-5-[(4-chlorophenyl)methyl]-8-fluoro-1,1,4-trioxo-2,3-dihydro-1λ^6,5-benzothiazepin-7-yl]-1,3,4-oxadiazol-2-yl]piperidine-1-carboxylate]
Emax (primary human T-cells [1]; [3]): 118% | EC50 (primary human T-cells [1]; Homo sapiens, T-cell, 120 h): 51.4 nM | EC50 (primary human T-cells [2]): 99.7 nM

CCN1CCC(C)(c2nc(-c3cc4c(cc3F)S(=O)(=O)C[C@H](N)C(=O)N4Cc3ccc(Cl)cc3)no2)CC1 [Example 306, (3R)-3-amino-5-[(4-chlorophenyl)methyl]-7-[5-(1-ethyl-4-methyl-4-piperidyl)-1,2,4-oxadiazol-3-yl]-8-fluoro-1,1-dioxo-2,3-dihydro-1λ^6,5-benzothiazepin-4-one]
Emax (primary human T-cells [1]; [3]): 79% | EC50 (primary human T-cells [1]; Homo sapiens, T-cell, 120 h): 3480 nM | EC50 (primary human T-cells [2]): 571 nM

CC(C)(N)c1nnc(-c2cc3c(cc2F)S(=O)(=O)C[C@H](N)C(=O)N3Cc2ccc(Cl)cc2)o1 [Example 69]
Emax (primary human T-cells [1]; [3]): 171% | EC50 (primary human T-cells [1]; Homo sapiens, T-cell, 120 h): 4770 nM | EC50 (primary human T-cells [2]): 1670 nM

COC(=O)N1CCC(OC)(c2nnc(-c3cc4c(cc3F)S(=O)(=O)C[C@H](N)C(=O)N4Cc3ccc(Cl)cc3)o2)CC1 [Example 132, methyl 4-methoxy-4-[5-[(3R)-3-amino-5-[(4-chlorophenyl)methyl]-8-fluoro-1,1,4-trioxo-2,3-dihydro-1λ^6,5-benzothiazepin-7-yl]-1,3,4-oxadiazol-2-yl]-piperidine-1-carboxylate]
Emax (primary human T-cells [1]; [3]): 97% | EC50 (primary human T-cells [1]; Homo sapiens, T-cell, 120 h): 150 nM | EC50 (primary human T-cells [2]): 1950 nM

CC(C)(C)c1nnc(-c2cc3c(cc2F)S(=O)(=O)C[C@H](NC(=O)CCN)C(=O)N3Cc2ccc(Cl)cc2)o1 [Example 264, 3-amino-N-[(3R)-7-(5-tert-butyl-1,3,4-oxadiazol-2-yl)-5-[(4-chlorophenyl)methyl]-8-fluoro-1,1,4-trioxo-2,3-dihydro-1λ^6,5-benzothiazepin-3-yl]propanamide]
Emax (primary human T-cells [1]; [3]): 106% | EC50 (primary human T-cells [1]; Homo sapiens, T-cell, 120 h): 2700 nM | EC50 (primary human T-cells [2]): 8100 nM

COC1(c2nnc(-c3ccc4c(c3)N(Cc3ccc(Cl)cc3)C(=O)[C@@H](N)CS4(=O)=O)o2)CCOCC1 [Example 371, (3R)-3-amino-5-[(4-chlorophenyl)methyl]-7-[5-(4-methoxytetrahydropyran-4-yl)-1,3,4-oxadiazol-2-yl]-1,1-dioxo-2,3-dihydro-1λ^6,5-benzothiazepin-4-one]
Emax (primary human T-cells [1]; [3]): 84% | EC50 (primary human T-cells [1]; Homo sapiens, T-cell, 120 h): 2760 nM | EC50 (primary human T-cells [2]): > 10000 nM

CS(=O)(=O)N1CC2CC2(c2nnc(-c3cc4c(cc3F)S(=O)(=O)C[C@H](N)C(=O)N4Cc3ccc(Cl)cc3)o2)C1 (stereo partly drawn) [Example 181, (3R)-3-amino-5-[(4-chlorophenyl)methyl]-8-fluoro-7-[5-(3-methylsulfonyl-3-azabicyclo[3.1.0]hexan-1-yl)-1,3,4-oxadiazol-2-yl]-1,1-dioxo-2,3-dihydro--benzothiazepin-4-one]
Emax (primary human T-cells [1]; [3]): 107% | EC50 (primary human T-cells [1]; Homo sapiens, T-cell, 120 h): 7830 nM | EC50 (primary human T-cells [2]): 1990 nM

COC(=O)N1CC2CC(c3nnc(-c4ccc5c(c4)N(Cc4ccc(OC(F)(F)C(F)F)cc4)C(=O)[C@@H](N)CS5(=O)=O)o3)(C2)C1 [Example 443, Methyl 1-[5-[(3R)-3-amino-1,1,4-trioxo-5-[[4-(1,1,2,2-tetrafluoroethoxy)phenyl]methyl]-2,3-dihydro-1λ^6,5-benzothiazepin-7-yl]-1,3,4-oxadiazol-2-yl]-3-azabicyclo[3.1.1]heptane-3-carboxylate]
Emax (primary human T-cells [1]; [3]): 97% | EC50 (primary human T-cells [1]; Homo sapiens, T-cell, 120 h): 3850 nM | EC50 (primary human T-cells [2]): > 10000 nM

COC(=O)N1CC2CC(c3nc(-c4cc5c(cc4F)S(=O)(=O)C[C@H](N)C(=O)N5Cc4ccc(OC(F)(F)C(F)F)cc4)no3)(C2)C1 [Example 512, methyl 1-[3-[(3R)-3-amino-8-fluoro-1,1,4-trioxo-5-[[4-(1,1,2,2-tetrafluoroethoxy)phenyl]methyl]-2,3-dihydro-1λ^6,5-benzothiazepin-7-yl]-1,2,4-oxadiazol-5-yl]-3-azabicyclo[3.1.1]heptane-3-carboxylate]
Emax (primary human T-cells [1]; [3]): 162% | EC50 (primary human T-cells [2]): 993 nM

CC(C)(C)c1nnc(-c2cc3c(cc2F)S(=O)(=O)C[C@H](N)C(=O)N3Cc2ccc(Cl)nn2)o1 [Example 251, (3R)-3-amino-7-(5-tert-butyl-1,3,4-oxadiazol-2-yl)-5-[(6-chloropyridazin-3-yl)methyl]-8-fluoro-1,1-dioxo-2,3-dihydro-1λ^6,5-benzothiazepin-4-one]
Emax (primary human T-cells [1]; [3]): 66% | EC50 (primary human T-cells [1]; Homo sapiens, T-cell, 120 h): 5300 nM | EC50 (primary human T-cells [2]): > 10000 nM

CC(C)(CN1CCCCC1=O)c1nnc(-c2cc3c(cc2F)S(=O)(=O)C[C@H](N)C(=O)N3Cc2ccc(Cl)cc2)o1 [Example 66, (3R)-3-amino-5-[(4-chlorophenyl)methyl]-7-[5-[1,1-dimethyl-2-(2-oxo-1-piperidyl)ethyl]-1,3,4-oxadiazol-2-yl]-8-fluoro-1,1-dioxo-2,3-dihydro-1λ^6,5-benzothiazepin-4-one]
Emax (primary human T-cells [1]; [3]): 112% | EC50 (primary human T-cells [1]; Homo sapiens, T-cell, 120 h): 2070 nM | EC50 (primary human T-cells [2]): 1330 nM
